What was measured:
Format in all cases: cell-based, human
Pa21 gene [1] = assay: Pa21 gene expression by real-time RT-PCR in primary adipocytes; settings: about 18-20 hours, vehicle control = 100
Description: (§1) Human hepatocyte HuH7 cells, which are epithelial cells of liver, were obtained from Japan Health Science Research Resources Bank (Osaka, Japan). Human primary adipocytes, which are connective tissue cells specialized for the synthesis and storage of fat, were obtained from Zen-Bio, Inc (Research Triangle Park, NC). Human primary skeletal muscle cells (SKMC) were obtained from Cambrex Bio Science (Walkersville, Md.). PPARα agonists, Wy14643 (Agatha, et al, 2000, Archives of Biochemistry and Biophysics 380:353-359) and fenofibrates were obtained from Cayman Chemical (Ann Arbor, Mich.) and Sigma (St Louis, Mo.), respectively.
(§2) Human HuH7 cells were cultured in Dulbecco's Modified Eagle Medium with 10% Fetal Bovine Serum (Gibco, N.Y.). Cells were treated with charcoal-stripped, delipidated calf serum (5%) (Sigma, St Louis, Mo.) for about 4-18 hours. Then, cells were treated with different concentrations of PPARα agonist (Wy14643 or fenofibrates) for about 20-24 h. Human SKM cells were cultured in Skeletal Muscle Growth Medium (Cambrex Bio Science, Walkersville, Md.), and were treated with different concentrations of PPARα agonist (Wy14643 or fenofibrates) for about 18-20 hours. Human primary adipocytes were cultured in Preadipocyte Medium, (Cat #PM—1, Zen-Bio, Inc., Research Triangle Park, NC), and were treated with different concentrations of PPARα agonist (Wy14643 or fenofibrates) for about 18-20 hours.
(§3) Total RNA was purified from cultured cells following the protocol provided by the manufacturer (Trizon method, Invitrogen Inc. Ca). The polymerase chain reaction (PCR) primers and fluorescent probes (TagMan probes) for Pa9, Pa13, and Pa21 were designed from GenBank sequences of accession numbers W30988, AB000584, and NM_080725, respectively. The primers and probes were designed using the software PrimerDesign (Applied Biosystems, Foster City, Calif.). The PCR primers for Pa9 were SEQ ID NO: 7, (5-[…]) and SEQ ID NO: 8 (5-[…]). […] The PCR primers for Pa13 were SEQ ID NO: 10 (5-[…], T) and SEQ ID NO: 11 (5-[…] T). […] The PCR primers for Pa21 were SEQ ID NO: 13 (5-[…] C) and SEQ ID NO: 14 (5-[…]). […] All primers and probes were synthesized by Keystone Labs (Camarillo, Calif.).
(§4) Reverse transcription (RT) and PCR were conducted in one step using “One-Step RT-PCR Master Mix Reagent” kit (Applied Biosystems, Foster City, Calif.) in ABI PRISM 7700 Sequence Detection System (Applied Biosystems). Each reaction was performed in a total volume of 25 μl containing 40 ng of total RNA. The reaction condition was: 48° C. for 30 minutes, 60° C. for 30 minutes, 94° C. for 5 minutes, followed by 40 cycles of 94° C. for 20 seconds and 60° C. for 1 minute. The primers for 18S ribosomal RNA were developed and provided by Applied Biosystems. The measurement of human 18S ribosomal RNA was used as an internal control for normalization of measuring and loading errors. PCR data were collected by Ct value (the cycle number at which logarithmic PCR plots cross a calculated threshold line) according to the manufacturer's guidelines and the value was used to determine the Δ^Ct (Ct of the target gene minus the Ct of 18S ribosomal RNA controls). Relative mRNA level was calculated using the equation 2^−ΔΔCt as described previously (Heid et al., 1996, Genome Res. 6:986-994).

Pa9 gene [2] = assay: Pa9 gene expression by real-time RT-PCR in HuH7 hepatocytes; settings: HuH7 hepatocytes
Description: as §1, §2, §3, §4

Pa21 gene [3] = assay: Pa21 gene expression by real-time RT-PCR in primary skeletal muscle cells; settings: about 18-20 hours, vehicle control = 100
Description: as §1, §2, §3, §4

Pa13 gene [4] = assay: Pa13 gene expression by real-time RT-PCR in primary adipocytes; settings: about 18-20 hours, vehicle control = 100
Description: as §1, §2, §3, §4

Pa13 gene [5] = assay: Pa13 gene expression by real-time RT-PCR in HuH7 hepatocytes
Description: as §1, §2, §3, §4

Pa9 gene [6] = assay: Pa9 gene expression by real-time RT-PCR in primary skeletal muscle cells; settings: about 18-20 hours, vehicle control = 100
Description: as §1, §2, §3, §4
The nucleotide sequence of the human FDRG gene (AX278133) is provided in SEQ ID NO: 1 and the sequence alignment between W30988 and FDRG gene is shown in FIG. 1. […] Quantitative real-time RT-PCR was performed to test whether gene expression of the human FDRG gene is regulated by PPARα.

Pa13 gene [7] = assay: Pa13 gene expression by real-time RT-PCR in primary skeletal muscle cells; settings: about 18-20 hours, vehicle control = 100
Description: as §1, §2, §3, §4

Pa21 gene [8] = assay: Pa21 gene expression by real-time RT-PCR in HuH7 hepatocytes
Description: as §1, §2, §3, §4

Pa9 gene [9] = assay: Pa9 gene expression by real-time RT-PCR in primary adipocytes; settings: 50 uM, about 18-20 hours, vehicle control = 100
Description: as §1, §2
Total RNA was purified from cultured cells following the protocol provided by the manufacturer (Trizon method, Invitrogen Inc. Ca). The polymerase chain reaction (PCR) primers and fluorescent probes (TagMan probes) for Pa9, Pa13, and Pa21 were designed from GenBank sequences of accession numbers W30988, AB000584, and NM_080725, respectively. The primers and probes were designed using the software PrimerDesign (Applied Biosystems, Foster City, Calif.). The PCR primers for Pa9 were SEQ ID NO: 7, (5-[…]) and SEQ ID NO: 8 (5-[…]). […] The PCR primers for Pa13 were SEQ ID NO: 10 (5-[…], T) and SEQ ID NO: 11 (5-[…] T). […] The PCR primers for Pa21 were SEQ ID NO: 13 (5-[…] C) and SEQ ID NO: 14 (5-[…]). […]
Reverse transcription (RT) and PCR were conducted in one step using “One-Step RT-PCR Master Mix Reagent” kit (Applied Biosystems, Foster City, Calif.) in ABI PRISM 7700 Sequence Detection System (Applied Biosystems). […] PCR data were collected by Ct value (the cycle number at which logarithmic PCR plots cross a calculated threshold line) according to the manufacturer's guidelines and the value was used to determine the Δ^Ct (Ct of the target gene minus the Ct of 18S ribosomal RNA controls). Relative mRNA level was calculated using the equation 2^−ΔΔCt as described previously (Heid et al., 1996, Genome Res. 6:986-994).

[10] = 3 uM, about 20-24 h, vehicle control = 100
[11] = 10 uM, about 20-24 h, vehicle control = 100
[12] = 30 uM, about 20-24 h, vehicle control = 100
[13] = 100 uM, about 20-24 h, vehicle control = 100
[14] = 300 uM, about 20-24 h, vehicle control = 100
[15] = 1 μM, vehicle control = 100 (Table 4)

With `CC(C)OC(=O)C(C)(C)Oc1ccc(C(=O)c2ccc(Cl)cc2)cc1` [Fenofibrate] the “Pa21 (H4960) gene expression, Percentage ± SE (%)” value (from here on “Pa21 … Percentage ± SE (%)”) (Pa21 gene [1]; 10 uM) was 63 ± 5.6%, the “Pa21 … Percentage ± SE (%)” value (Pa21 gene [1]; 50 uM) was 109 ± 4.5% and the “Pa21 … Percentage ± SE (%)” value (Pa21 gene [1]; 250 uM) was 121 ± 17.3%. For the same compound, the “Pa9 (W38098) gene expression, Percentage ± SE (%)” value (“Pa9 … Percentage ± SE (%)” for short) (Pa9 gene [2]; [10]) was 110 ± 12.7%, the “Pa9 … Percentage ± SE (%)” value (Pa9 gene [2]; [11]) was 90 ± 23% and the “Pa9 … Percentage ± SE (%)” value (Pa9 gene [2]; [12]) was 80 ± 2%. The “Pa9 … Percentage ± SE (%)” value (Pa9 gene [2]; [13]) was 140 ± 37.1%, the “Pa9 … Percentage ± SE (%)” value (Pa9 gene [2]; [14]) was 200 ± 11.5% and the “Pa21 … Percentage ± SE (%)” value (Pa21 gene [3]; 3 uM) was 110 ± 14.5%. For the same compound, the “Pa21 … Percentage ± SE (%)” value (Pa21 gene [3]; 10 uM) was 290 ± 1.4%, the “Pa21 … Percentage ± SE (%)” value (Pa21 gene [3]; 30 uM) was 280 ± 52.5% and the “Pa13 (N26311) gene expression, Percentage ± SE (%)” value (“Pa13 … Percentage ± SE (%)” for short) (Pa13 gene [4]; 10 uM) was 70 ± 27.1%. The “Pa13 … Percentage ± SE (%)” value (Pa13 gene [4]; 50 uM) was 45 ± 13.3%, the “Pa13 … Percentage ± SE (%)” value (Pa13 gene [4]; 250 uM) was 206 ± 34.4% and the “Pa13 … Percentage ± SE (%)” value (Pa13 gene [5]; [10]) was 180 ± 43.9%. For the same compound, the “Pa13 … Percentage ± SE (%)” value (Pa13 gene [5]; [11]) was 160 ± 55%, the “Pa13 … Percentage ± SE (%)” value (Pa13 gene [5]; [12]) was 250 ± 4.8% and the “Pa13 … Percentage ± SE (%)” value (Pa13 gene [5]; [13]) was 750 ± 10.8%. The “Pa13 … Percentage ± SE (%)” value (Pa13 gene [5]; [14]) was 710 ± 7.3%, the “Pa9 … Percentage ± SE (%)” value (Pa9 gene [6]; 3 uM) was 120 ± 34.2% and the “Pa9 … Percentage ± SE (%)” value (Pa9 gene [6]; 10 uM) was 230 ± 15.7%. The “Pa9 … Percentage ± SE (%)” value (Pa9 gene [6]; 30 uM) was 340 ± 7.4%, the “Pa9 … Percentage ± SE (%)” value (Pa9 gene [6]; 100 uM) was 350 ± 19.7% and the “Pa9 … Percentage ± SE (%)” value (Pa9 gene [6]; 300 uM) was 550 ± 14%. The “Pa13 … Percentage ± SE (%)” value (Pa13 gene [7]; 3 uM) was 72.7 ± 30.9%, the “Pa13 … Percentage ± SE (%)” value (Pa13 gene [7]; 10 uM) was 63.6 ± 11.8% and the “Pa13 … Percentage ± SE (%)” value (Pa13 gene [7]; 30 uM) was 181.8 ± 3%. The “Pa13 … Percentage ± SE (%)” value (Pa13 gene [7]; 100 uM) was 218.2 ± 2.9%, the “Pa13 … Percentage ± SE (%)” value (Pa13 gene [7]; 300 uM) was 309.1 ± 7.4% and the “Pa21 … Percentage ± SE (%)” value (Pa21 gene [8]; [10]) was 63.6 ± 17.3%. The “Pa21 … Percentage ± SE (%)” value (Pa21 gene [8]; [11]) was 227.3 ± 54%, the “Pa21 … Percentage ± SE (%)” value (Pa21 gene [8]; [12]) was 209.1 ± 20.4% and the “Pa21 … Percentage ± SE (%)” value (Pa21 gene [8]; [13]) was 300 ± 20.6%. The “Pa21 … Percentage ± SE (%)” value (Pa21 gene [8]; [14]) was 336.4 ± 24.3% and the “Pa9 … Percentage ± SE (%)” value (Pa9 gene [9]) was 127 ± 1.5%.

In the case of `CN(CCOc1ccc(CC2SC(=O)NC2=O)cc1)c1ccccn1` (centres unmarked) [Rosiglitazone], the “Pa9 … Percentage ± SE (%)” value (Pa9 gene [2]; [15]) is reported as 147 ± 31.2%, the “Pa13 … Percentage ± SE (%)” value (Pa13 gene [5]; [15]) is reported as 217 ± 20.2% and the “Pa21 … Percentage ± SE (%)” value (Pa21 gene [8]; [15]) is reported as 97 ± 17.5%.
